Molecules are shown by their SMILES. ≈ marks a conversion by molar mass, not a printed value.

For the first test, the system named is Vero. Briefly: Tested for the concentration required to inhibit HSV-1 strain KOS cytopathic effect by 50% in vero cells. The test is classed as functional. Particulars: Chlorocebus sabaeus, read-out: ID50 (the source's name). In general terms: Cytopathic effects are the visible damage that an infection or toxin causes in cultured cells.
With `Nc1nc(O)c2ncn([C@H]3C[C@H](O)[C@](O)(CO)C3)c2n1`, the IC50 stood at 70 µg/mL (≈ 249 µM).

On to `Nc1nc(O)c2ncn([C@H]3C[C@H](O)[C@@](O)(CO)C3)c2n1`, for which the IC50 came to 0.15 µg/mL (≈ 0.533 µM).

As to `Nc1nc(O)c2ncn([C@@H]3C[C@H](CO)[C@@H](O)C3)c2n1`, the IC50 was found to be 0.06 µg/mL (≈ 0.226 µM).

Take `Nc1nc(O)c2ncn(C3CC(O)C(F)(CO)C3)c2n1` (stereo not given): the IC50 came to 0.15 µg/mL (≈ 0.53 µM).

For the compound `Nc1nc2c(ncn2COCCO)c(=O)[nH]1` [ACYCLOVIR], the IC50 turned out to be 0.2 µg/mL (≈ 0.888 µM).

For another test, the system named is Vero. Briefly: Tested for the concentration required to inhibit HSV-2 strain 186 cytopathic effect by 50% in vero cells. The test is classed as functional. Particulars: Chlorocebus sabaeus, read-out: ID50 (the source's name).
Consider `Nc1nc(O)c2ncn([C@H]3C[C@H](O)[C@](O)(CO)C3)c2n1`, for which the IC50 came to 65 µg/mL (≈ 231 µM).

As for `Nc1nc(O)c2ncn([C@H]3C[C@H](O)[C@@](O)(CO)C3)c2n1`, the IC50 is 0.26 µg/mL (≈ 0.924 µM).

On to `Nc1nc(O)c2ncn([C@@H]3C[C@H](CO)[C@@H](O)C3)c2n1`, for which the IC50 is 0.44 µg/mL (≈ 1.66 µM).

As for `Nc1nc(O)c2ncn(C3CC(O)C(F)(CO)C3)c2n1` (stereo not given), the IC50 came to 0.36 µg/mL (≈ 1.27 µM).

As for `Nc1nc2c(ncn2COCCO)c(=O)[nH]1` [ACYCLOVIR], the IC50 is 0.6 µg/mL (≈ 2.66 µM).

The test system of the next test is Vero. In words: Tested for the cytotoxic effect in vero cell monolayers after incubation for 48 hr at 37 degree Centigrade. The test is classed as functional. The conditions noted are these: Chlorocebus sabaeus, read-out: ID50 (the source's name).
Take `Nc1nc(O)c2ncn([C@H]3C[C@H](O)[C@](O)(CO)C3)c2n1`: the IC50 is greater than 300 µg/mL.

In the case of `Nc1nc(O)c2ncn([C@H]3C[C@H](O)[C@@](O)(CO)C3)c2n1`, the IC50 was greater than 900 µg/mL.

In the case of `Nc1nc(O)c2ncn([C@@H]3C[C@H](CO)[C@@H](O)C3)c2n1`, the IC50 amounted to 300 µg/mL (≈ 1130 µM).

As for `Nc1nc(O)c2ncn(C3CC(O)C(F)(CO)C3)c2n1` (stereo not given), the IC50 came to 100 µg/mL (≈ 353 µM).

On to `Nc1nc2c(ncn2COCCO)c(=O)[nH]1` [ACYCLOVIR], for which the IC50 was greater than 300 µg/mL.
